Among the data in ChEMBL document CHEMBL1255210, “Discovery of pyrrolopyridazines as novel DGAT1 inhibitors” (Bioorg Med Chem Lett, 2010) are IC50 values, retold here.

Assay [1] has as its target T1, Diacylglycerol O-acyltransferase 1 (Homo sapiens, UniProt O75907).
T1 sequence (O75907 whole entry): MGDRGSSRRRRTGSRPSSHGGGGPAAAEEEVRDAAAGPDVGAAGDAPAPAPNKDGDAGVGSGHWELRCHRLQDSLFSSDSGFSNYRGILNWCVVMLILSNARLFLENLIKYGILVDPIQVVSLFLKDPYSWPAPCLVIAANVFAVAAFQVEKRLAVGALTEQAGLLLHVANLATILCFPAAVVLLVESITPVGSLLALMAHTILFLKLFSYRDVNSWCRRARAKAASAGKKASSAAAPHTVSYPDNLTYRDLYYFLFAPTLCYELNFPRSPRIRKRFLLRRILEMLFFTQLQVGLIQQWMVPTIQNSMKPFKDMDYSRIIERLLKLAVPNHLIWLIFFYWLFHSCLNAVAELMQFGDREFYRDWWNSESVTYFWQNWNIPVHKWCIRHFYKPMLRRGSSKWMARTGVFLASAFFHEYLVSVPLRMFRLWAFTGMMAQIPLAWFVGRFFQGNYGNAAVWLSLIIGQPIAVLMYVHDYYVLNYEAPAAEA
The assay can be described thus: Inhibition of human liver flag-tagged DGAT1 expressed in baculovirus infected insect cells after 2 hrs.

Assay [2] deals with T2, Sterol O-acyltransferase 1 (Homo sapiens, UniProt P35610).
T2 sequence (P35610 whole entry): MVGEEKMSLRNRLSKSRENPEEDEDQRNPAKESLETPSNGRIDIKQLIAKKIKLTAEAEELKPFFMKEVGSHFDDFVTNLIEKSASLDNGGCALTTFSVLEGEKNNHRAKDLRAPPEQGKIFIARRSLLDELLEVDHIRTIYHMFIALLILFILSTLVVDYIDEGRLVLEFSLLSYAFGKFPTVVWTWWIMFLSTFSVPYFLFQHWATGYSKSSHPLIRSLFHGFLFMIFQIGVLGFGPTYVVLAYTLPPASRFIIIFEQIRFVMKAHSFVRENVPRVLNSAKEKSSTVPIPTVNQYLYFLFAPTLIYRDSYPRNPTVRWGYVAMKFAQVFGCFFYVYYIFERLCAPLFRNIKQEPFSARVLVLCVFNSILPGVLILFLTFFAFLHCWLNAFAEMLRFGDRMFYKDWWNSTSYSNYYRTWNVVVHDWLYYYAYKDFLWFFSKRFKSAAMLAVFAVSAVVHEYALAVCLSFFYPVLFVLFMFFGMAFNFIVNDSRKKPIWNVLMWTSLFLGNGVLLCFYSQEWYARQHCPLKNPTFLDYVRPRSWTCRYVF
The assay can be described thus: Inhibition of human full-length flag-tagged ACAT1 expressed in baculovirus infected insect cells after 10 mins.

The target of assay [3] is T1, Diacylglycerol O-acyltransferase 1. As to the kind of experiment: Inhibition of DGAT1 in human Caco-2 cells after 30 mins. The assay is classed as cell-based.

A word on the IC50: it is the concentration at which inhibition is half-maximal. Read a high IC50 as a need for much substance. `CCCc1cc(N2CCOCC2)nn2c(CCC)c(C(=O)OCC)c(C(=O)OCC)c12` showed an IC50 in assay [1] greater than 3000 nM.

For `CCOC(=O)c1cn2nc(N3CCOCC3)cc(-c3ccccc3)c2c1C(=O)OCC`, the half-maximal inhibitory concentration (IC50) in assay [1] was greater than 3000 nM.

Consider `CCOC(=O)c1c(C(=O)OCC)c2c(-c3ccccc3)cc(N3CCOCC3)nn2c1-c1ccc(O)cc1`, for which the values for the IC50 in assay [1] and in assay [2] were 570 nM and 1290 nM, respectively.

As to `C=CCc1c(C(=O)OCC)c(C(=O)OCC)c2c(-c3ccccc3)cc(N3CCOCC3)nn12`, the figures for the concentration for half-maximal inhibition (IC50) in assay [1] and in assay [2] were 75 nM and 1400 nM, respectively.

In the case of `CCCCc1c(C(=O)OCC)c(C(=O)OCC)c2c(-c3ccccc3)cc(N3CCOCC3)nn12`, the half-inhibitory concentration (IC50) was 160 nM in assay [1] and less than 300 nM in assay [2].

For `CCCc1c(-c2nc(CC)no2)c(C(=O)OCC)c2c(-c3ccccc3)cc(N3CCOCC3)nn12`, the IC50 in assay [1] was 110 nM; in assay [2], less than 1000 nM.

Take `CCCc1c(C(=O)OCC)c(C(=O)OCC)c2c(C3CCC3)cc(N3CCOCC3)nn12`: the concentration for half-maximal inhibition (IC50) in assay [1] is greater than 3000 nM.

As for `CCOC(=O)c1c(C(=O)OCC)c2c(-c3ccccc3)cc(N3CCOCC3)nn2c1-c1ccc(-c2ccccc2)cc1`, the 50% inhibitory concentration (IC50) is 250 nM in assay [1] and less than 300 nM in assay [2].

As to `CCCc1c(C(=O)OCC)c(C(=O)OCC)c2c(-c3ccccc3)cc(N3CCC3)nn12`, the IC50 was 1360 nM in assay [1] and 1490 nM in assay [2].

In turn, `CCOC(=O)c1c(C(=O)OCC)c2c(-c3ccccc3)cc(N3CCOCC3)nn2c1CCCO` gave an IC50 in assay [1] greater than 1000 nM.

As to `CCCc1noc(-c2c(C(=O)OCC)c3c(-c4ccccc4)cc(N4CCOCC4)nn3c2CCC)n1`, the 50% inhibitory concentration (IC50) came out at 65 nM in assay [1] and 260 nM in assay [2].

In the case of `CCCc1c(C(=O)OCC)c(C(=O)OCC)c2c(C3CCCC3)cc(N3CCOCC3)nn12`, in assay [1], the IC50 was greater than 3000 nM.

With `CCCc1c(C(=O)OCC)c(C(=O)OCC)c2c(-c3ccccc3)cc(N3CCOCC3)nn12`, the 50% inhibitory concentration (IC50) in assay [1] was determined as 120 nM; in assay [2], 1300 nM.

For `CCCc1c(C(=O)OCC)c(C(=O)OCC)c2c(C(C)(C)C)cc(N3CCOCC3)nn12`, in assay [1], the half-maximal inhibitory concentration (IC50) was greater than 3000 nM.

As for `CCCc1c(-c2nc(-c3ccccc3)no2)c(C(=O)OCC)c2c(-c3ccccc3)cc(N3CCOCC3)nn12`, the IC50 in assay [1] is 180 nM; in assay [3] it was 200 nM; in assay [2], 1590 nM.

As for `CCCc1c(C(=O)OCC)c(C(=O)OCC)c2c(-c3ccccc3)cc(N3CCCC3)nn12`, the concentration for half-maximal inhibition (IC50) in assay [1] was 120 nM; in assay [2], 1300 nM.

On to `CCOC(=O)c1c(C(=O)OCC)c2c(-c3ccccc3)cc(N3CCOCC3)nn2c1CCCOC`, for which the half-maximal inhibitory concentration (IC50) in assay [1] turned out to be 270 nM; in assay [2] it was 2560 nM.

`CCCc1c(C(=O)OCC)c(C(=O)OCC)c2c(-c3ccccc3)cc(N3C[C@@H](C)O[C@@H](C)C3)nn12` yielded an IC50 in assay [1] greater than 3000 nM.

On to `CCOC(=O)c1c(C(=O)OCC)c2c(-c3ccccc3)cc(N3CCOCC3)nn2c1CCCN(C)C`, for which the half-maximal inhibitory concentration (IC50) in assay [1] is greater than 1000 nM.

On to `CCOC(=O)c1c(C(=O)OCC)c2c(-c3ccccc3)cc(N3CCOCC3)nn2c1CC`, for which the results for the IC50 in assay [1] and in assay [2] were 240 nM and 2170 nM, respectively.

With `CCOC(=O)c1c(C(=O)OCC)c2c(-c3ccccc3)cc(N3CCOCC3)nn2c1C1CC1`, the figures for the half-inhibitory concentration (IC50) in assay [1] and in assay [2] were 620 nM and 3250 nM, respectively.

`CCOC(=O)c1c(C(=O)OCC)c2c(-c3ccccc3)cc(N3CCOCC3)nn2c1C`: the results for the half-maximal inhibitory concentration (IC50) in assay [1] and in assay [2] were 520 nM and 2590 nM, respectively.

As for `CCCc1c(-c2nc(C(C)C)no2)c(C(=O)OCC)c2c(-c3ccccc3)cc(N3CCOCC3)nn12`, the half-maximal inhibitory concentration (IC50) in assay [1] was 57 nM; in assay [3], 51 nM; in assay [2], less than 1000 nM.

`CCOC(=O)c1c(C(=O)OCC)c2c(-c3ccccc3)cc(N3CCOCC3)nn2c1-c1ccc(OCc2ccccc2)cc1`: the IC50 in assay [1] is 60 nM; in assay [2], less than 100 nM.

Turning to `CCOC(=O)c1c(C(=O)OCC)c2c(-c3ccccc3)cc(N3CCOCC3)nn2c1COC`, the concentration for half-maximal inhibition (IC50) in assay [1] was found to be 240 nM; in assay [2], 8750 nM.

On to `CCOC(=O)c1c(C(=O)OCC)c2c(-c3ccccc3)cc(N3CCOCC3)nn2c1-c1ccc(N)cc1`, for which the IC50 worked out at 630 nM in assay [1] and 1050 nM in assay [2].

For `CCCCCc1noc(-c2c(C(=O)OCC)c3c(-c4ccccc4)cc(N4CCOCC4)nn3c2CCC)n1`, the figures for the IC50 in assay [1] and in assay [2] were 110 nM and less than 1000 nM, respectively.

As to `CCCc1c(C(=O)OCC)c(C(=O)OCC)c2c(-c3ccccc3F)cc(N3CCOCC3)nn12`, the IC50 stood at 570 nM in assay [1] and 1490 nM in assay [2].

Turning to `CCCc1c(-c2nc(CCO)no2)c(C(=O)OCC)c2c(-c3ccccc3)cc(N3CCOCC3)nn12`, the IC50 was 180 nM in assay [1], 260 nM in assay [3] and 1050 nM in assay [2].

As to `CCCc1c(C(=O)OCC)c(C(=O)OCC)c2c(C3CCCCC3)cc(N3CCOCC3)nn12`, the half-inhibitory concentration (IC50) in assay [1] was greater than 3000 nM.

As for `CCCCc1noc(-c2c(C(=O)OCC)c3c(-c4ccccc4)cc(N4CCOCC4)nn3c2CCC)n1`, the IC50 was 73 nM in assay [1], 69 nM in assay [3] and less than 1000 nM in assay [2].
